Measurements: US20120183976A1, “METHODS OF ASSESSING ACTIVITY OF A POLYSACCHARIDE COMPOSITION” (priority 2009, published 2012)

Tested on: C170HM2 human colorectal tumor cells
Assay: C170HM2 colon cancer metastasis to the liver model
Type: in vivo, MF1 nude (nu/nu) athymic mice
Settings: 25 mg/kg i.v. cycled on days 1, 3, 5, 7
Protocol: Liver metastasis was initiated by intraperitoneal injection of C170HM2 human colorectal tumor cells into male MF1 nude (nu/nu) athymic mice. 5FU/leucovorin was used as a positive control.
C170HM2 cells were maintained in vitro in RPMI culture medium (Sigma) containing 10% (v/v) heat inactivated fetal bovine serum and 2 mM L-glutamine at 37° C. in 5% CO2 and humidified conditions. Cells from sub-confluent monolayers were harvested with 0.025% EDTA, washed in culture medium and re-suspended in sterile phosphate buffered saline, pH 7.4 (PBS) for in vivo administration. 1.5×10^6 cells in a volume of 1 ml were injected intraperitoneally into 65 mice, and the mice were allocated into treatment groups as below.
Group 1: n=10 Vehicle control Group 2: n=10 25 mg/kg 5FU/leucovorin i.v. cycled on days 1, 3, 5, 7 Group 3: n=10 5 mg/kg compound 1 (Dalteparin) s.c. once daily Group 4: n=10 5 mg/kg compound 2 (M402) s.c. once daily Group 5: n=10 15 mg/kg compound 2 s.c. once daily Group 6: n=10 30 mg/kg compound 2 s.c. once daily Group 7: n=5 Untreated
Treatment was initiated on day 1 following cell injection and continued until day 35 or until the clinical condition of the animal required termination. Groups 5 and 6 missed one dose on day 5. […]
The study was terminated on day 35, and the tumors in the liver were excised and weighed. The numbers of lung nodules are also counted.

Question: How did the Mean tumor area (day 35) turn out when 5FU/leucovorin was run?
Answer: Its Mean tumor area is 13.12 mm^2.

Question: What about the Mean tumor weight (liver tumors day 35) of the same substance?
Answer: The Mean tumor weight was 0.037 g.
